According to US8119589B2, “Modulation of CD4+ T cell responses by a tick saliva protein, Salp15 and polypeptides derived therefrom” (University of North Carolina at Charlotte, priority 2004, dated 2012):

What was measured:
[1] = system: Jurkat clone E6-1; assay: TCR ligation-induced tyrosine phosphorylation in stimulated Jurkat cells; format: cell-based, human
Description: (§1) Naïve CD4+ T cells from C3H/HeN, Balb/c, and B10.BR mice were purified as previously described (Anguita et al., 2002). CD4+ T cells were preincubated in Click's modified Bruff's Medium (Sigma Chemical Co., St. Louis, Mo., U.S.A.) for 10 minutes at 37° C. with and without Salp15 (50 μg/mL) and stimulated for 20 min or the indicated times at 37° C. with 10 μg/mL of anti-CD3ε, 1 μg/mL of anti-CD28, and 10 μg/mL of anti-armenian and syrian hamster IgG (BD Biosciences Pharmingen, San Jose, Calif., U.S.A.). Jurkat (E6-1) cells were stimulated using 5 μg/mL of OKT3 mAb (eBioscience, San Diego, Calif., U.S.A.) and 1 μg/mL of anti-human CD28 cross linked with 5 μg/mL anti-mouse IgG for the indicated times.
For the visualization of lipid rafts, phospho-tyrosine, and cytoskeleton reorganization, CD4^+, CD8^+ or Jurkat cells were cytospun for 10 minutes at 1000 RPM onto positively charged microslides (Fisher Scientific, Hampton, N.H., U.S.A.). The cells were fixed with 3.7% paraformaldehyde (Sigma Chemical Co.) for 15 minutes and stained with CTB594 (Molecular Probes, Eugene, Oreg., U.S.A.), AlexaFluor488 labeled phalloidin (Molecular Probes) or (1:50) biotin-conjugated anti-p-Tyr (PY99) followed by Streptavidin-AlexaFluor594 (1:100, Molecular Probes). […]

[2] = system: CD4+ T cells; assay: Lipid raft redistribution (CTB594 staining, receptor capping) in activated CD4+ T cells; format: cell-based, mouse; details: Salp15 treatment prior to anti-CD3/CD28 stimulation, murine cells
Description: as §1
For the visualization of lipid rafts, phospho-tyrosine, and cytoskeleton reorganization, CD4^+, CD8^+ or Jurkat cells were cytospun for 10 minutes at 1000 RPM onto positively charged microslides (Fisher Scientific, Hampton, N.H., U.S.A.). The cells were fixed with 3.7% paraformaldehyde (Sigma Chemical Co.) for 15 minutes and stained with CTB594 (Molecular Probes, Eugene, Oreg., U.S.A.), AlexaFluor488 labeled phalloidin (Molecular Probes) or (1:50) biotin-conjugated anti-p-Tyr (PY99) followed by Streptavidin-AlexaFluor594 (1:100, Molecular Probes). For p-LAT and p-PLCγ1 staining, fixed cells were treated with PBS containing 0.1% Triton-X 100 and 100 mM glycine for 15 min at room temperature and stained using rabbit p-LAT (Tyr^191) or rabbit anti-p-PLCγ1 (Tyr^783) probed with anti-rabbit IgG488 (Molecular Probes).
For receptor capping studies, mouse primary B and CD11^+ cells were purified by positive selection using biotin anti-mouse CD45R/B220 clone RA3-6B2 and biotin anti-mouse CD11b clone M1/70 (BD Biosciences Pharmingen) respectively, followed by incubation with magnetic microbeads. The cells were analyzed for receptor capping using 25 μg/mL anti-mouse IgM and 25 μg/mL anti-mouse CD16/CD32 respectively, cross-linked with 25 μg/mL of anti-rat IgG594 for 10 min in the presence or absence of 50 μg/mL of Salp15. […]

[3] = system: splenic T cells from CD4-deficient mice and control T cells; assay: IL-2 production by anti-CD3/CD28 stimulated T cells from CD4-deficient and B6 mice; format: cell-based, mouse; details: 50 μg/mL Salp15, 72 hrs
Description: T-cells from CD4-deficient and B6 mice (The Jackson Laboratory, Bar Harbor, Me., U.S.A.) were purified by negative selection and activated for 72 hrs using 5 μg/ml of plate bound anti-CD3 and 1 μg/ml of anti-CD28 in the presence or absence of 50 μg/mL of Salp15. DO11.10 transgenic mouse (The Jackson Laboratory) CD4^+ T cells were purified by negative selection as before and incubated in the presence of 106/mL of syngeneic mitomycin C-treated (50 μg/ml for 40 min at 37° C.) antigen presenting cells (APCs) with 10 μg/mL of ovalbumin in the presence of 0.5, 5.0 and 50 μg/mL of Salp15 for 72 hrs. The supernatants were then collected and IL-2 measured by capture ELISA following the manufacturer's instruction (BD Biosciences Pharmingen).

[4] = target: T1, HIV gp120 binding to CD4 (Homo sapiens, UniProt P01730); assay: gp120-HRP binding to plate-coated sCD4 (D1-D2); details: 0.05, 0.5 and 5 uM Salp15
T1 construct: coated with 0.05 uM sCD4 (D1-D2 domains)
Description: Ninety-six (96) well plates were coated with 0.05 uM sCD4 (D1-D2 domains) in coating buffer (pH 9.6). The plates were washed 2× and blocked with 200 uL of PBS+10% FCS. Samples were then added containing gp120-HRP plus 0, 0.05, 0.5 and 5 uM Salp15 in PBS+10% FCS. KLH was used as negative control at 5 uM. The plates were incubated for 2 hours at room temperature and washed 4×, followed by incubation with horseradish peroxidase substrate and stop solution from KPL.

## Salp15: secreted salivary protein from Ixodes scapularis, SEQ ID NO: 2; recombinant His-tagged, produced in Drosophila S2 cells
[1]; Jurkat cells, anti-pTyr staining
  Inhibitory effects on TCR ligation-induced tyrosine phosphorylation: also observed
[1]; Jurkat clone E6-1
  Inhibition of PLCγ1 phosphorylation: also evident
[2]
  Lipid raft clustering: reduced
[3]; T cells from CD4-negative mice
  Inhibition (immunosuppressive activity, IL-2): 33%
[3]; control T cells (B6 mice)
  Inhibition (immunosuppressive activity, IL-2): 85%
[4]
  Inhibition of gp120 binding to CD4: concentration dependent inhibition
